The values that follow come from patent US11369609B2, “Small molecule Wnt inhibitor as treatment for dyslipidemia” (Yale University, priority 2019, dated 2022).

The series concerns canonical Wnt signaling. The series can be described thus: Renal fibrosis in diabetic GR^ECKO and control littermate mice treated with Wnt inhibitor. Type of series: in vivo. As to the method:
All experiments were performed in accordance with the National Institute of Health (NIH) Guidelines for the Care of Laboratory Animals. Mice lacking the endothelial glucocorticoid receptor (GR) (known as GR^ECKO) and those lacking this receptor on the Apo E null background (DKO) were generated as previously described (6). The induction of diabetes in CD-1 mice and C57B/L6 mice was performed according to previously established experimental protocols (38-42). Briefly, diabetes was induced in 10-week-old GR^ECKO mice with five consecutive intraperitoneal (IP) doses of streptozotocin (STZ) 50 mg/kg in 10 mmol/L citrate buffer (pH 4.5). Wnt inhibitor (LGK974) was provided to GR^ECKO and control littermate at 5 mg/kg at a frequency of six doses per week for 8 weeks (43). Etomoxir (20 mg/kg) and c75 (15 mg/kg) were dosed (ip) three times per week for 3 weeks in the GR^ECKO and control littermate. A single IP dose of 200 mg/kg STZ was used to induce diabetes in CD-1 mice. Fenofibrate (100 mg/kg), simvastatin (40 mg/kg), were dosed orally for 4 weeks in diabetic CD-1 mice. All mice were sacrificed after 4 weeks of treatment and tissues and blood were harvested. Urine albumin levels were assayed using a Mouse Albumin ELISA Kit (Exocell, Philadelphia, Pa.).
A point-counting method was utilized to evaluate the relative area of the mesangial matrix. PAS-stained glomeruli from each mouse were analyzed using a digital microscope screen grid containing 540 (27×20) points. Masson's trichrome-stained images were evaluated by ImageJ software, and the fibrotic areas were estimated.
Deparaffinized sections were incubated with picrosirius red solution for 1 hour at room temperature. The slides were washed twice with acetic acid solution for 30 seconds per wash. The slides were then dehydrated in absolute alcohol three times, cleared in xylene, and mounted with a synthetic resin. Sirius red staining was analyzed using ImageJ software, and fibrotic areas were quantified.
Frozen kidney sections (5 μm) were used for immunofluorescence; double positive labeling with CD31/αSMA, CD31/TGFβR1 and E-cadherin/αSMA was measured. Briefly, frozen sections were dried and placed in acetone for 10 min at −30° C. Once the sections were dried, they were washed twice in phosphate-buffered saline (PBS) for 5 min and then blocked in 2% bovine serum albumin/PBS for 30 min at room temperature. Thereafter, the sections were incubated in primary antibody (1:100) for 1 hour and washed in PBS (5 min) three times. Next, the sections were incubated with the secondary antibodies for 30 min, washed with PBS three times (5 min each), and mounted with mounting medium with DAPI (Vector Laboratories, Burlingame, Calif.). The immune-labeled sections were analyzed by fluorescence microscopy. For each mouse, original magnification of ×400 pictures were obtained from six different areas, and quantification was performed.
Frozen sections (5 μm) were used for the detection of EndMT and EMT. Cells undergoing EndMT were detected by double-positive labeling for CD31 and αSMA and/or TGFβR1. Cells undergoing EMT were detected by double-positive labeling for E-cadherin and αSMA. Sections were analyzed and quantified by fluorescence microscopy.
To determine whether Wnt inhibition could mitigate the renal fibrosis observed in diabetic mice lacking endothelial GR, a cohort of animals was treated with the Wnt inhibitor, LGK974. At the age of 8 weeks, control and GR^ECKO mice were injected with STZ 50 mg/kg for five consecutive days. Sixteen weeks after injection, LGK974 was administered by oral gavage for eight additional weeks (FIG. 16A).

The mark [1] stands for this setting: diabetic control vs diabetic GR^ECKO mice.

The structures appear in SMILES notation.

For `Cc1cc(-c2ncc(CC(=O)Nc3ccc(-c4cnccn4)cn3)cc2C)ccn1` [LGK974], under “GR^ECKO vs mouse model of diabetic kidney disease”, the “effect on Wnt signaling, fibrogenic phenotype and endothelial GR level in GR^ECKO” value is “less evident”. For the same compound, the body weight result (at sacrifice, among the groups, LGK974 oral gavage 8 weeks) is “no differences”. Moreover, the “level of EMT (E-cadherin/αSMA co-positive cells)” value (control and diabetic GR^ECKO mice) is “significantly reduced”. Further, the renal fibrosis entry (diabetic GR^ECKO and DKO mice (legend of FIG. 16)) was “partially abrogates the renal fibrosis”. Further, the kidney weight result (diabetic GR^ECKO and diabetic control mice) is “significant reduction”. In addition, under “diabetic GR^ECKO mice”, the “EndMT (CD31/αSMA co-positive cells)” value is listed as “less pronounced”; the “relative area of fibrosis” value is on record as “less pronounced, though still significant”; the relative collagen deposition entry is “less pronounced, though still significant”; the tubular damage result is “less pronounced, though still significant”. In addition, under “diabetic control mice”, the “EndMT (CD31/αSMA co-positive cells)” value is “significantly suppressed”, the “relative area of fibrosis” value is recorded as “clearly improved”, the relative collagen deposition entry was “clearly improved” and the tubular damage result is listed as “clearly improved”. Under setting [1], the staining of fibronectin entry is given as “A similar pattern was observed” and the “staining of β-catenin” value is listed as “A similar pattern was observed”.
